Experimental data taken from patent publication US11006626B2, “Compounds for protection of cells” (Sulfateq B.V., priority 2012, dated 2021).

What was measured:
PRP platelets = PRP platelets stored with Sul 136, aggregation after stimulation with collagen; assay type: cell-based; design: key: +means that the cells show aggregation and can thus be activated upon stimulation; −means no aggregation upon stimulation
Description: […] • The color and coagulation properties were visually analysed. • The thrombocyte cells that survived were counted and it was evaluated whether the thrombocytes were aggregated. • It was evaluated if the thrombocytes still were able to function after stimulation by the addition of ADP or under influence of collagen in a 96 well plate. • The adhesion was evaluated, meaning the ability of the platelets to bind collagen in a 6 well plate preincubated with collagen. • Via an ELISA assay, it was evaluated whether thromboxane was secreted from the platelets. Thromboxane facilitates aggregation and is produced by activated blood platelets.
(+means that the cells show aggregation, ++means strong aggregation, these platelets can thus be activated upon stimulation, −means no aggregation upon stimulation)

apherese blood platelets = assay: Apheresis platelets stored with Sul 136, Annexin V test by flow cytometry; assay type: cell-based; details: stored at 4° C. with Sul 136
Description: 300 μM suspension of Sul 136 is added with a procedure, which keeps the bag content sterile and the Sul 136 is kept in suspension by frequent whirling and stored at 37° C. before it is added to the freshly harvested platelets. The Sul 136 suspension is added to three platelet bags directly from the bag. After addition, the content of the platelet bag is gently mixed. After 2 hours the first sample is drawn with a seal-docked sample bag. The sample bag is disconnected by welding and from this sample bag the samples are taken for hematology analyzing, aggregometer tests and the flow-cytometry tests. Swirling in the bag is reported by experience of the laboratory worker in the standard format. Platelets without Sul 136 put on a flatbed shaker and stored at room temperature were used as control. Another control is stored at 4° C. Platelet samples in which Sul 136 is added, are stored without shaking in a refrigerator at 4° C.
On a Beckman Coulter FC 500 flow cytometer using the Roche Annexin-V FLUOS Staining Kit
A mix of 20 μl Annexin-V fluorescein from Roche kit into 1 ml incubation buffer was made and 20 μl propidium iodide solution was added. 2 ml of platelet concentrate was centrifuged on standard Eppendorf centrifuge and the supernatant was discarded.
1 ml PBS buffer was added and cell concentration was checked whether it was around 1.000.000. This was diluted 100 times with the prepared Annexin-V fluorescein and propidium iodide mix and incubated for 15 minutes. 500 μl incubation buffer from kit was added and cell analysis was made in a flowcytometer.

Cc1c(C)c2c(c(C)c1O)CCC(C)(C(=O)N1CCN(CC(=O)O)CC1)O2 (racemic) [SUL - 136, 2-(4-(6-hydroxy-2,5,7,8-tetramethylchroman-2-carbonyl)piperazin-1-yl)acetic acid]
aggregation of the PRP platelets after stimulation with collagen (PRP platelets; 10 min 0.001 mM, 24 h): − | aggregation of the PRP platelets after stimulation with collagen (PRP platelets; 10 min 0.001 mM, 48 h): − | aggregation of the PRP platelets after stimulation with collagen (PRP platelets; 10 min 0.001 mM, 72 h): − | aggregation of the PRP platelets after stimulation with collagen (PRP platelets; 10 min 0.001 mM, 216 h): − | aggregation of the PRP platelets after stimulation with collagen (PRP platelets; 10 min 0.01 mM, 24 h): − | aggregation of the PRP platelets after stimulation with collagen (PRP platelets; 10 min 0.01 mM, 48 h): − | aggregation of the PRP platelets after stimulation with collagen (PRP platelets; 10 min 0.01 mM, 72 h): − | aggregation of the PRP platelets after stimulation with collagen (PRP platelets; 10 min 0.01 mM, 216 h): − | aggregation of the PRP platelets after stimulation with collagen (PRP platelets; 10 min 0.1 mM, 48 h): − | aggregation of the PRP platelets after stimulation with collagen (PRP platelets; 10 min 0.1 mM, 72 h): − | aggregation of the PRP platelets after stimulation with collagen (PRP platelets; 10 min 0.1 mM, 216 h): − | aggregation of the PRP platelets after stimulation with collagen (PRP platelets; 10 min 1 mM, 48 h): − | aggregation of the PRP platelets after stimulation with collagen (PRP platelets; 60 min 0.001 mM, 24 h): − | aggregation of the PRP platelets after stimulation with collagen (PRP platelets; 60 min 0.001 mM, 48 h): − | aggregation of the PRP platelets after stimulation with collagen (PRP platelets; 60 min 0.001 mM, 72 h): − | aggregation of the PRP platelets after stimulation with collagen (PRP platelets; 60 min 0.001 mM, 216 h): − | aggregation of the PRP platelets after stimulation with collagen (PRP platelets; 60 min 0.01 mM, 24 h): − | aggregation of the PRP platelets after stimulation with collagen (PRP platelets; 60 min 0.01 mM, 48 h): − | aggregation of the PRP platelets after stimulation with collagen (PRP platelets; 60 min 0.01 mM, 72 h): − | aggregation of the PRP platelets after stimulation with collagen (PRP platelets; 60 min 0.01 mM, 216 h): − | aggregation of the PRP platelets after stimulation with collagen (PRP platelets; 60 min 0.1 mM, 24 h): − | aggregation of the PRP platelets after stimulation with collagen (PRP platelets; 60 min 0.1 mM, 48 h): − | aggregation of the PRP platelets after stimulation with collagen (PRP platelets; 60 min 0.1 mM, 72 h): − | aggregation of the PRP platelets after stimulation with collagen (PRP platelets; 60 min 0.1 mM, 216 h): − | aggregation of the PRP platelets after stimulation with collagen (PRP platelets; 60 min 1 mM, 24 h): − | aggregation of the PRP platelets after stimulation with collagen (PRP platelets; 60 min 1 mM, 48 h): − | aggregation of the PRP platelets after stimulation with collagen (PRP platelets; 60 min 1 mM, 72 h): − | aggregation of the PRP platelets after stimulation with collagen (PRP platelets; 60 min 10 mM, 216 h): − | Annexin (% positive) (apherese blood platelets; Donor 2, Day 1): 5.98% | Annexin (% positive) (apherese blood platelets; Donor 2, Day 2): 10.96% | Annexin (% positive) (apherese blood platelets; Donor 2, Day 3): 19.56% | Annexin (% positive) (apherese blood platelets; Donor 2, Day 5): 32.11% | Annexin (% positive) (apherese blood platelets; Donor 2, Day 8): 45.71% | Annexin (% positive) (apherese blood platelets; Donor 2, Day 10): 53.96% | Annexin (% positive) (apherese blood platelets; Donor 2, Day 12): 62.97% | Annexin (% positive) (apherese blood platelets; Donor 2, Day 19): 72.67% | Annexin (% positive) (apherese blood platelets; Donor 3, Day 1): 5.14% | Annexin (% positive) (apherese blood platelets; Donor 3, Day 2): 8.68% | Annexin (% positive) (apherese blood platelets; Donor 3, Day 3): 14.34% | Annexin (% positive) (apherese blood platelets; Donor 3, Day 5): 27.77% | Annexin (% positive) (apherese blood platelets; Donor 3, Day 8): 41.97% | Annexin (% positive) (apherese blood platelets; Donor 3, Day 10): 62.65% | Annexin (% positive) (apherese blood platelets; Donor 3, Day 12): 70.33% | Annexin (% positive) (apherese blood platelets; Donor 3, Day 19): 80.99% | Annexin (% positive) (apherese blood platelets; donor 1, Day 1): 4.51% | Annexin (% positive) (apherese blood platelets; donor 1, Day 2): 14.48% | Annexin (% positive) (apherese blood platelets; donor 1, Day 3): 18.24% | Annexin (% positive) (apherese blood platelets; donor 1, Day 5): 20.38% | Annexin (% positive) (apherese blood platelets; donor 1, Day 8): 34.56% | Annexin (% positive) (apherese blood platelets; donor 1, Day 10): 43.52% | Annexin (% positive) (apherese blood platelets; donor 1, Day 12): 56.91% | Annexin (% positive) (apherese blood platelets; donor 1, Day 19): 88.34%
